# pIC50: −log10 of the molar value.
# Target: Human recombinant DHX9 protein (Homo sapiens (Human), UniProt Q08211)
# Experiment: DHX9 ATPase assay (ADP-Glo)
# Assay type: biochemical
# Conditions: for pIC50: read-out: DHX9 Biochemical Inflection Point
# Human recombinant DHX9 protein, sequence (Q08211 whole entry): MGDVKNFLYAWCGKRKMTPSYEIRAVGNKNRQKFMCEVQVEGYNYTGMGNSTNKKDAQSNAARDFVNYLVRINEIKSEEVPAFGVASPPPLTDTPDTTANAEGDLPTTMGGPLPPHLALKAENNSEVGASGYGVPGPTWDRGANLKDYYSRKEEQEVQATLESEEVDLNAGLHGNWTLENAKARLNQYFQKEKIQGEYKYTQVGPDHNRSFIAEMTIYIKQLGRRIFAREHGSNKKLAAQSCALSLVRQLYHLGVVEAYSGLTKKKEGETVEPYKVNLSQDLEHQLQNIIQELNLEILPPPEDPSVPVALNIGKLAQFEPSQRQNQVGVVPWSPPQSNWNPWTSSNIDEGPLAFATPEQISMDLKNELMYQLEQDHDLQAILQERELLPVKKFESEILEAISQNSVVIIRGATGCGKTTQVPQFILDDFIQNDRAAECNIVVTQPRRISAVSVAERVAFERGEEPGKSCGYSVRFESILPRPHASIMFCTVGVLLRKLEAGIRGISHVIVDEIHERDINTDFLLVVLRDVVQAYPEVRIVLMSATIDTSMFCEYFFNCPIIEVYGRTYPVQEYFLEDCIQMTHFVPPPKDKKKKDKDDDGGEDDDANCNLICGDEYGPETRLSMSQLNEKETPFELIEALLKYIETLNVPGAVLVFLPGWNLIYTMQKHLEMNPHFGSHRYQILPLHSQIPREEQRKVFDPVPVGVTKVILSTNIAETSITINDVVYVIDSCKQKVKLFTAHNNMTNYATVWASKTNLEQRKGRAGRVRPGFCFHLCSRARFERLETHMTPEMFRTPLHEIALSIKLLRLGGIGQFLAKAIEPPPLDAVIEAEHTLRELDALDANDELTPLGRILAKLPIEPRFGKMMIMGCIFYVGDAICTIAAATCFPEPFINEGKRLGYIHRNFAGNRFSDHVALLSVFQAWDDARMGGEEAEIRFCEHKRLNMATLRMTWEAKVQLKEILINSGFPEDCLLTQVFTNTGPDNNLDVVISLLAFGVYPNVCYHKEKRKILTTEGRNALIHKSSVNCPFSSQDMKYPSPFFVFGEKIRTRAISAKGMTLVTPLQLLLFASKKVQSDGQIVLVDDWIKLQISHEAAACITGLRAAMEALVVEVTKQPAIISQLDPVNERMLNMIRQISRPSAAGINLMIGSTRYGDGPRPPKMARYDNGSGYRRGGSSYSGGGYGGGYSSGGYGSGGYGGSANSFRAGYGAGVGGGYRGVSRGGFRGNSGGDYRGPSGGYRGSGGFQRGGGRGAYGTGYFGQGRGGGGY
DHX9 Biochemical Max Inhibition,pIC50,Structure (SMILES)
68.1,7.55,Cn1cc(C(=O)Nc2cc(Cl)cc(NS(C)(=O)=O)c2)cc1-c1ccc(Cl)cn1 [Example 576]
91.5,7.60,Cn1cc(C(=O)Nc2cc(Cl)cc(NS(C)(=O)=O)c2)cc1-c1ncc(Cl)cn1 [Example 577]
70.1,6.83,Cc1cc(C(=O)Nc2cc(Cl)cc(NS(C)(=O)=O)c2)cn1-c1ncc(Cl)cn1 [Example 578]
65.2,7.51,CCS(=O)(=O)Nc1cc(Cl)cc(NC(=O)c2cc(-c3ccc(F)cn3)n(C)c2)c1 [Example 579]
70.5,7.62,Cc1cnc(-c2cc(C(=O)Nc3cc(Cl)cc(NS(C)(=O)=O)c3)cn2C)c(F)c1 [Example 580]
50.5,7.00,Cn1cc(C(=O)Nc2cc(Cl)cc(NS(=O)(=O)CCO)c2)cc1-c1ncc(F)cc1F [Example 581]
49.9,6.54,Cc1sc(C(=O)Nc2cc(Cl)cc(NS(=O)(=O)CCO)c2)cc1-c1ncc(OC(C)C)cn1 [Example 582]
72.5,8.31,Cc1sc(C(=O)Nc2cc(Cl)cc(NS(C)(=O)=O)c2)cc1-c1ncc(O)cn1 [Example 583]
63.5,7.77,Cn1cc(C(=O)Nc2cc(Cl)cc(NS(C)(=O)=O)c2)cc1-c1ncccc1OCC1CC1 [Example 584]
70.9,7.64,Cc1sc(C(=O)Nc2cc(Cl)cc(NS(C)(=O)=O)c2)cc1-c1ncc(C#N)cn1 [Example 585]
70.9,7.78,CCc1sc(C(=O)Nc2cc(Cl)cc(NS(C)(=O)=O)c2)cc1-c1ncccc1F [Example 587]
67.7,6.99,CCc1sc(C(=O)Nc2cc(Cl)cc(NS(C)(=O)=O)c2)cc1-c1ncc(F)cc1F [Example 588]
69.7,–,CCc1sc(C(=O)Nc2cc(Cl)cc(NS(C)(=O)=O)c2)cc1-c1ccc(F)cn1 [Example 589]
74.8,8.23,"Cc1sc(C(=O)Nc2cc(Cl)cc(NS(C)(=O)=O)c2)cc1-c1ccc(N2CCN(C(=O)C3CC3)CC2)cn1 [Example 590, N-(3-chloro-5-methanesulfonamidophenyl)-4-[5-(4-cyclopropanecarbonylpiperazin-1-yl)pyridin-2-yl]-5-methylthiophene-2-carboxamide]"
65.9,7.74,Cn1cc(C(=O)Nc2cc(Cl)cc(NS(C)(=O)=O)c2)cc1-c1ccc(N2CCN(C(=O)C(C)(C)C)CC2)cn1 [Example 591]
77.5,7.27,Cn1cc(C(=O)Nc2cc(Cl)cc(NS(C)(=O)=O)c2)cc1-c1ccc(N2CCN(C(=O)C3CCCC3)CC2)cn1 [Example 592]
99.9,7.52,Cn1cc(C(=O)Nc2cc(Cl)cc(NS(C)(=O)=O)c2)cc1-c1ccc(N2CCN(C(=O)C3CCC3)CC2)cn1 [Example 593]
80.1,7.96,Cn1cc(C(=O)Nc2cc(Cl)cc(NS(C)(=O)=O)c2)cc1-c1ccc(N2CCN(C(=O)C3CC3)CC2)cn1 [Example 594]
69.35,7.76,"Cn1cc(C(=O)Nc2cc(Cl)cc(NS(C)(=O)=O)c2)cc1-c1ccc(N2CC(F)(F)C2)cn1 [Example 595, N-(3-chloro-5-methanesulfonamidophenyl)-5-[5-(3,3-difluoroazetidin-1-yl)pyridin-2-yl]-1-methyl-1H-pyrrole-3-carboxamide]"
72.2,7.74,COC(=O)N1CCN(c2ccc(-c3cc(C(=O)Nc4cc(Cl)cc(NS(C)(=O)=O)c4)cn3C)nc2)CC1 [Example 596]
69.1,7.66,Cn1cc(C(=O)Nc2cc(Cl)cc(NS(C)(=O)=O)c2)cc1-c1ncc(N2CC(F)(F)C2)cn1 [Example 597]
72.1,7.79,Cn1cc(C(=O)Nc2cc(Cl)cc(NS(C)(=O)=O)c2)cc1-c1ncc(N2CC(F)C2)cn1 [Example 598]

# Continued, compound first:
Structure (SMILES),DHX9 Biochemical Max Inhibition,pIC50
CCS(=O)(=O)Nc1cc(Cl)cc(NC(=O)c2cc(-c3ncc(F)cn3)n(C)c2)c1 [Example 542],73,7.52
CCS(=O)(=O)Nc1cc(Cl)cc(NC(=O)c2cc(-c3ncc(F)cc3F)n(C)c2)c1 [Example 543],60.2,7.31
Cn1cc(C(=O)Nc2cc(Cl)cc(NS(C)(=O)=O)c2)cc1-c1ncc(F)cc1Cl [Example 544],66.5,7.23
Cc1cc(F)cnc1-c1cc(C(=O)Nc2cc(Cl)cc(NS(C)(=O)=O)c2)cn1C [Example 545],64.7,7.13
Cn1cc(C(=O)Nc2cc(Cl)cc(NS(C)(=O)=O)c2)cc1-c1ncc(F)cc1C#N [Example 546],73.6,7.88
Cn1cc(C(=O)Nc2cc(Cl)cc(NS(C)(=O)=O)c2)cc1-c1c(F)cc(F)cc1F [Example 547],81.1,6.90
CCS(=O)(=O)Nc1cc(Cl)cc(NC(=O)c2cc(-c3ncc(C)cc3F)n(C)c2)c1 [Example 548],64.6,7.56
COc1cnc(-c2cc(C(=O)Nc3cc(Cl)cc(NS(C)(=O)=O)c3)cn2C)nc1 [Example 549],73.6,7.72
COc1cc(C(F)(F)F)cnc1-c1cc(C(=O)Nc2cc(Cl)cc(NS(C)(=O)=O)c2)sc1C [Example 550],99.8,7.60
Cn1cc(C(=O)Nc2cc(Cl)cc(NS(C)(=O)=O)c2)cc1-c1cccc(N2CC(F)(F)C2)n1 [Example 551],87.4,6.98
Cn1cc(C(=O)Nc2cc(Cl)cc(NS(C)(=O)=O)c2)cc1-c1cc(N2CC(F)(F)C2)ccn1 [Example 552],89.7,7.78
Cn1cc(C(=O)Nc2cc(Cl)cc(NS(C)(=O)=O)c2)cc1-c1ncc(OC(F)F)cn1 [Example 553],80.2,7.69
Cn1cc(C(=O)Nc2cc(Cl)cc(NS(C)(=O)=O)c2)cc1-c1ncc(C(F)(F)F)cc1F [Example 554],79.7,7.12
Cn1cc(C(=O)Nc2cc(Cl)cc(NS(C)(=O)=O)c2)cc1-c1ccc(OC(C)(C)C)cn1 [Example 555],61.9,7.36
Cn1cc(C(=O)Nc2cc(Cl)cc(NS(C)(=O)=O)c2)cc1-c1ncc(OC(C)(C)C)cn1 [Example 556],64.8,7.69
Cn1cc(C(=O)Nc2cc(Cl)cc(NS(C)(=O)=O)c2)cc1-c1ncc(OC(C)(C)C)cc1F [Example 557],59.8,7.43
Cn1cc(C(=O)Nc2cc(F)cc(NS(C)(=O)=O)c2)cc1-c1ncc(F)cc1F [Example 558],78,7.34

Structure (SMILES),DHX9 Biochemical Max Inhibition,pIC50
Cc1sc(C(=O)Nc2cc(Cl)cc(NS(C)(=O)=O)c2)cc1-c1ncc(OC(C)(C)C)cn1 [Example 559],72.175,7.48
CS(=O)(=O)Nc1cc(Cl)cc(NC(=O)c2c[nH]c(-c3ncc(F)cc3F)c2)c1 [Example 560],59,7.29
CCOc1cc(F)cnc1-c1cc(C(=O)Nc2cc(Cl)cc(NS(C)(=O)=O)c2)cn1C [Example 561],69.7,7.80
CS(=O)(=O)Nc1cc(Cl)cc(NC(=O)c2cc(-c3ncc(F)cn3)n(CC(F)(F)F)c2)c1 [Example 562],62.3,7.19
COc1cnc(-c2cc(C(=O)Nc3cc(Cl)cc(NS(C)(=O)=O)c3)cn2CC(F)(F)F)nc1 [Example 563],66.9,7.15
CS(=O)(=O)Nc1cc(Cl)cc(NC(=O)c2cc(-c3ncccc3F)n(CC(F)(F)F)c2)c1 [Example 564],77.8,7.15
CCS(=O)(=O)Nc1cc(Cl)cc(NC(=O)c2cc(-c3ncc(OC(C)C)cn3)c(C)s2)c1 [Example 565],60,7.43
CCS(=O)(=O)Nc1cc(Cl)cc(NC(=O)c2cc(-c3ncc(OC(C)(C)C)cn3)c(C)s2)c1 [Example 566],66,6.73
Cn1cc(C(=O)Nc2cc(Cl)cc(NS(C)(=O)=O)c2)cc1-c1c(F)cc(F)c[n+]1[O-] [Example 567],77,7.23
"COc1cc(F)cnc1-c1cc(C(=O)Nc2cc(Cl)cc(NS(C)(=O)=O)c2)cn1C [Example 568, N-(3-chloro-5-methanesulfonamidophenyl)-5-(5-fluoro-3-methoxypyridin-2-yl)-1-methylpyrrole-3-carboxamide]",77.3,8.10
Cn1cc(C(=O)Nc2cc(Cl)cc(NS(C)(=O)=O)c2)cc1-c1ccc(C(F)(F)F)cn1 [Example 569],75.9,7.25
Cn1cc(C(=O)Nc2cc(Cl)cc(NS(C)(=O)=O)c2)cc1-c1ccc(C#N)cn1 [Example 570],69.8,7.67
Cn1cc(C(=O)Nc2cc(Cl)cc(NS(C)(=O)=O)c2)cc1-c1ncc(C(F)(F)F)cn1 [Example 571],71.3,7.68
CCOc1ccc(-c2cc(C(=O)Nc3cc(Cl)cc(NS(C)(=O)=O)c3)cn2C)nc1 [Example 572],73.3,7.95
COc1ccc(-c2cc(C(=O)Nc3cc(Cl)cc(NS(C)(=O)=O)c3)cn2C)nc1 [Example 573],82.8,7.81
COCc1ccc(-c2cc(C(=O)Nc3cc(Cl)cc(NS(C)(=O)=O)c3)cn2C)nc1 [Example 574],80.6,8.12
Cn1cc(C(=O)Nc2cc(Cl)cc(NS(C)(=O)=O)c2)cc1-c1ccc(F)cn1 [Example 575],76.2,7.75

# Reference: patent publication US20240316047A1, “INHIBITORS OF RNA HELICASE DHX9 AND USES THEREOF” (ACCENT THERAPEUTICS, INC., priority 2022, published 2024)
